system: five-mutation introduced D-type amino acid dehydrogenase (Met155Leu, Val159Gly, Thr174Ile, Arg184Met, His230Asn); test: D-amino acid synthesis activity, five-mutation enzyme; type: biochemical, Numidum massiliense; details: 5 mM 2-oxo acid, 0.1 mM NADH, 200 mM ammonium chloride, pH 9.5, 50° C.
Experimental: In order to prepare a gene for a mutant enzyme in which five types of mutations (Met155Leu, Val159Gly, Thr174Ile, Arg184Met, and His230Asn) are introduced into the D-type amino acid dehydrogenase derived from N. massiliense, the six mutation-introduced D-type amino acid dehydrogenase/pET-21a(+) prepared above was used as a template to prepare the expression vector by PCR using “PrimeSTAR Max DNA Polymerase” available from Takara Bio Inc. PCR was performed according to the manufacturer's protocol. A PCR reaction solution was prepared by containing 0.3 μM of each of the following primers and 50 ng of templet DNA as described above.
(§1) The activity of the enzyme was measured by determining a decrease in absorbance at wavelength of 340 nm of NADPH or NADH produced by the catalytic reaction of the enzyme. […] The absorbance was measured by an ultraviolet-visible spectrophotometer UV-1800 (available from SHIMADZU).

Compound	D-amino acid synthesis activity (specific activity), Five-mutation enzyme, NADH [µmol/min/mg]
CCCCCCC(=O)C(=O)O [2-oxooctanoic acid]	0.050
O=C(O)C(=O)Cc1ccccc1 [2-oxo-3-phenylpropanoic acid]	0.012
CC(=O)C(=O)O [2-oxopropanoic acid]	0.046
CC(C)C(=O)C(=O)O [2-oxo-3-methylbutanoic acid]	0.018
CCC(=O)C(=O)O [2-oxobutanoic acid]	0.014

same assay, conditions: 5 mM 2-oxo acid, 0.1 mM NADPH, 200 mM ammonium chloride, pH 9.5, 50° C.

Compound	D-amino acid synthesis activity (specific activity), Five-mutation enzyme, NADPH [µmol/min/mg]
CCCCCCC(=O)C(=O)O [2-oxooctanoic acid]	11.2
O=C(O)C(=O)Cc1ccccc1 [2-oxo-3-phenylpropanoic acid]	2.7
CC(=O)C(=O)O [2-oxopropanoic acid]	0.30
CC(C)C(=O)C(=O)O [2-oxo-3-methylbutanoic acid]	2.4
CCC(=O)C(=O)O [2-oxobutanoic acid]	1.6

system: three-mutation introduced D-type amino acid dehydrogenase (Thr174Ile, Arg184Met, His230Asn); test: D-amino acid synthesis activity, three-mutation enzyme; type: biochemical, Numidum massiliense; details: 5 mM 2-oxo acid, 0.1 mM NADH, 200 mM ammonium chloride, pH 9.5, 50° C.
Source text: DNA encoding polypeptide in which three types of mutations (Thr174Ile, Arg184Met, and His230Asn) were introduced into the amino acid sequence of D-type amino acid dehydrogenase derived from N. massiliense was obtained by synthesis. This was cleaved with restriction enzymes NdeI and EcoRI, separated by agarose gel electrophoresis, and then extracted and purified from the gel. DNA fragments after a restriction enzyme treatment were incorporated into restriction enzyme sites (NdeI and EcoRI) of pET-21a(+) (available from Novagen) of a plasmid for protein expression by a ligation reaction to construct an expression vector that retains three-mutation introduced D-type amino acid dehydrogenase gene. The expression vector was constructed such that the three-mutation introduced D-type amino acid dehydrogenase gene was incorporated into downstream of the T7 promoter and the […] binding site, and upstream of the T7 terminator.
as §1

Compound	D-amino acid synthesis activity (specific activity), Three-mutation enzyme, NADH [µmol/min/mg]
CCCCCCC(=O)C(=O)O [2-oxooctanoic acid]	0.039
O=C(O)C(=O)Cc1ccccc1 [2-oxo-3-phenylpropanoic acid]	0.028
CC(=O)C(=O)O [2-oxopropanoic acid]	0.000
CC(C)C(=O)C(=O)O [2-oxo-3-methylbutanoic acid]	0.043
CCC(=O)C(=O)O [2-oxobutanoic acid]	0.028

same assay, conditions: 5 mM 2-oxo acid, 0.1 mM NADPH, 200 mM ammonium chloride, pH 9.5, 50° C.

Compound	D-amino acid synthesis activity (specific activity), Three-mutation enzyme, NADPH [µmol/min/mg]
CCCCCCC(=O)C(=O)O [2-oxooctanoic acid]	8.2
O=C(O)C(=O)Cc1ccccc1 [2-oxo-3-phenylpropanoic acid]	1.5
CC(=O)C(=O)O [2-oxopropanoic acid]	2.2
CC(C)C(=O)C(=O)O [2-oxo-3-methylbutanoic acid]	2.5
CCC(=O)C(=O)O [2-oxobutanoic acid]	2.2

system: D-type amino acid dehydrogenase derived from N. massiliense (wild type); test: D-amino acid synthesis activity, wild type enzyme; type: biochemical, Numidum massiliense; details: 5 mM 2-oxo acid, 0.1 mM NADH, 200 mM ammonium chloride, pH 9.5, 50° C.
Experimental: as §1

Compound	D-amino acid synthesis activity (specific activity), Wild type, NADH
CCCCCCC(=O)C(=O)O [2-oxooctanoic acid]	No
O=C(O)C(=O)Cc1ccccc1 [2-oxo-3-phenylpropanoic acid]	0.011 µmol/min/mg
CC(=O)C(=O)O [2-oxopropanoic acid]	0.13 µmol/min/mg
CC(C)C(=O)C(=O)O [2-oxo-3-methylbutanoic acid]	0.0012 µmol/min/mg
CCC(=O)C(=O)O [2-oxobutanoic acid]	0.011 µmol/min/mg

same assay, conditions: 5 mM 2-oxo acid, 0.1 mM NADPH, 200 mM ammonium chloride, pH 9.5, 50° C.

Compound	D-amino acid synthesis activity (specific activity), Wild type, NADPH [µmol/min/mg]
CCCCCCC(=O)C(=O)O [2-oxooctanoic acid]	5.8
O=C(O)C(=O)Cc1ccccc1 [2-oxo-3-phenylpropanoic acid]	1.5
CC(=O)C(=O)O [2-oxopropanoic acid]	4.7
CC(C)C(=O)C(=O)O [2-oxo-3-methylbutanoic acid]	0.26
CCC(=O)C(=O)O [2-oxobutanoic acid]	1.4

system: six-mutation introduced D-type amino acid dehydrogenase (Asp95Ser, Met155Leu, Val159Gly, Thr174Ile, Arg184Met, His230Asn); test: D-amino acid synthesis activity, six-mutation enzyme; type: biochemical, Numidum massiliense; details: 5 mM 2-oxo acid, 0.1 mM NADH, 200 mM ammonium chloride, pH 9.5, 50° C.
Experimental: DNA encoding polypeptide into which six types of mutations (Asp95Ser, Met155Leu, Val159Gly, Thr174Ile, Arg184Met, and His230Asn) were introduced into the amino acid sequence of D-type amino acid dehydrogenase derived from N. massiliense was obtained by synthesis. An expression vector that retains the six-mutation introduced D-type amino acid dehydrogenase gene was further constructed in the same manner as described above.
as §1

Compound	D-amino acid synthesis activity (specific activity), Six-mutation enzyme, NADH
CCCCCCC(=O)C(=O)O [2-oxooctanoic acid]	1.0 µmol/min/mg
O=C(O)C(=O)Cc1ccccc1 [2-oxo-3-phenylpropanoic acid]	0.018 µmol/min/mg
CC(=O)C(=O)O [2-oxopropanoic acid]	0.12 µmol/min/mg
CC(C)C(=O)C(=O)O [2-oxo-3-methylbutanoic acid]	No
CCC(=O)C(=O)O [2-oxobutanoic acid]	0.0011 µmol/min/mg

same assay, conditions: 5 mM 2-oxo acid, 0.1 mM NADPH, 200 mM ammonium chloride, pH 9.5, 50° C.

Compound	D-amino acid synthesis activity (specific activity), Six-mutation enzyme, NADPH [µmol/min/mg]
CCCCCCC(=O)C(=O)O [2-oxooctanoic acid]	9.0
O=C(O)C(=O)Cc1ccccc1 [2-oxo-3-phenylpropanoic acid]	2.1
CC(=O)C(=O)O [2-oxopropanoic acid]	0.0070
CC(C)C(=O)C(=O)O [2-oxo-3-methylbutanoic acid]	0.051
CCC(=O)C(=O)O [2-oxobutanoic acid]	0.027

— patent US10927354B2, “D-type amino acid dehydrogenase” (Kureha Corporation, priority 2017, dated 2021)
